Results as given in ChEMBL document CHEMBL3813622, “Anion inhibition profiles of α-, β- and γ-carbonic anhydrases from the pathogenic bacterium Vibrio cholerae” (Bioorg Med Chem, 2016).
“And” between values parts separate entries of the source, which are not always exact repeats. Equal entries are not always repeated.

What was measured:
[1] = Inhibition of Vibrio cholerae carbonic anhydrase beta preincubated for 15 mins by stopped-flow CO2 hydrase assay
[2] = Inhibition of Vibrio cholerae alpha carbonic anhydrase preincubated for 15 mins by stopped-flow CO2 hydrase assay
[3] = Inhibition of Helicobacter pylori alpha carbonic anhydrase preincubated for 15 mins by stopped-flow CO2 hydrase assay
[4] = biological target: Carbonic anhydrase 1 (Homo sapiens, UniProt P00915); test: Inhibition of human carbonic anhydrase 1 preincubated for 15 mins by stopped-flow CO2 hydrase assay
Sequence of Carbonic anhydrase 1 (P00915 whole entry): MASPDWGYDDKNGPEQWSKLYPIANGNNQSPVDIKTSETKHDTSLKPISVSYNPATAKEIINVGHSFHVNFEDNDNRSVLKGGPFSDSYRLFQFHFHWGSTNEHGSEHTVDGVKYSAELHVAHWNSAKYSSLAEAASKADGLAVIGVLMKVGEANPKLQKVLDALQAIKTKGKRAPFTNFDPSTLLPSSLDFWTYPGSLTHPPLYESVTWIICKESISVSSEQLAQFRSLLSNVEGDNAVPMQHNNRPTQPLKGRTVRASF

Structure (SMILES): O=S(=O)(O)NS(=O)(=O)O
- Ki [1]: > 200000 µM
- Ki [2]: 88200 µM
- Ki [3]: 540 µM

Structure (SMILES): O=P(O)(O)OP(=O)(O)O [PYROPHOSPHORIC ACID]
- Ki [2]: 2960 µM
- Ki [3]: 660 µM

Structure (SMILES): CCN(CC)C(=S)S [DITIOCARB]
- Ki [1]: 730 µM
- Ki [2]: 43 µM
- Ki [3]: 5 µM

Structure (SMILES): O=S(=O)(O)OOS(=O)(=O)O
- Ki [1]: 3400 µM
- Ki [2]: 84100 µM
- Ki [3]: 920 µM

Structure (SMILES): I [IODIDE]
- Ki [1]: 9000 µM
- Ki [2]: 9730 µM
- Ki [3]: 6050 µM

Structure (SMILES): O=[Se](=O)(O)O [SELENIC ACID]
- Ki [1]: 3400 µM
- Ki [2]: 60800 µM
- Ki [3]: 720 µM

Structure (SMILES): [N-]=[N+]=[N-]
- Ki [1]: 20500 µM
- Ki [2]: 760 µM
- Ki [3]: 830 µM

Structure (SMILES): NS(=O)(=O)O [SULFAMATE]
- Ki [1]: 86 µM
- Ki [2]: 31 µM
- Ki [3]: 80 µM

Structure (SMILES): S [HYDROGEN SULFIDE]
- Ki [1]: 21300 µM
- Ki [2]: 74 µM

Structure (SMILES): NS(N)(=O)=O [SULFAMIDE]
- Ki [1]: 54 µM
- Ki [2]: 8 µM
- Ki [3]: 73 µM

Structure (SMILES): Cl [HYDROCHLORIC ACID]
- Ki [1]: 8100 µM
- Ki [2]: 930 µM
- Ki [3]: 2700 µM

Structure (SMILES): O=S(=O)(O)O [SULFURIC ACID]
- Ki [2]: 850 µM
- Ki [3]: 820 µM

Structure (SMILES): O=[Te](=O)(O)O
- Ki [1]: 2300 µM
- Ki [2]: 14500 µM
- Ki [3]: 340 µM

Structure (SMILES): O=[As](O)(O)c1ccccc1 [PHENYLARSONIC ACID]
- Ki [1]: 79 µM
- Ki [2]: 23 µM
- Ki [3]: 440 µM

Structure (SMILES): N#CO [CYANATE]
- Ki [1]: 7100 µM
- Ki [2]: 75 µM
- Ki [3]: 600 µM

Structure (SMILES): N#C[SeH]
- Ki [1]: 5300 µM
- Ki [2]: 760 µM
- Ki [3]: 730 µM
- Ki [4]: 8.5 µM

Structure (SMILES): F [FLUORIDE ION]
- Ki [1]: 8700 µM
- Ki [2]: 800 µM
- Ki [3]: 4080 µM

Structure (SMILES): N#CS [THIOCYANIC ACID]
- Ki [1]: 9500 µM
- Ki [2]: 820 µM
- Ki [3]: 4100 µM

Structure (SMILES): O=S(=O)(O)F
- Ki [1]: 8900 µM

Structure (SMILES): Br [BROMIDE]
- Ki [1]: 7400 µM
- Ki [2]: 28000 µM
- Ki [3]: 2410 µM

Structure (SMILES): O=C(O)O [BICARBONATE]
- Ki [1]: 5900 µM and 6700 µM
- Ki [2]: 4640 µM and 5130 µM

Structure (SMILES): OB(O)c1ccccc1 [PHENYLBORONIC ACID]
- Ki [1]: 85 µM
- Ki [2]: 7 µM
- Ki [3]: 97 µM

Structure (SMILES): [O-][Cl+3]([O-])([O-])O [PERCHLORATE]
- Ki [1]: > 200000 µM
- Ki [2]: > 200000 µM
- Ki [3]: 10100 µM

Structure (SMILES): O=NO [NITROUS ACID]
- Ki [1]: 9100 µM
- Ki [2]: 34100 µM
- Ki [3]: 930 µM

Structure (SMILES): F[B-](F)(F)F
- Ki [1]: > 200000 µM
- Ki [2]: > 200000 µM
- Ki [3]: > 200000 µM

Structure (SMILES): S=C(S)S [CARBONOTRITHIOIC ACID]
- Ki [1]: 7000 µM
- Ki [2]: 88 µM
- Ki [3]: 380 µM

Structure (SMILES): O=[N+]([O-])O
- Ki [1]: 8400 µM
- Ki [2]: 670 µM
- Ki [3]: 810 µM

Structure (SMILES): O=S(O)O [SULFUROUS ACID]
- Ki [1]: > 200000 µM
- Ki [2]: 68 µM
- Ki [3]: 990 µM
